Measurements: patent US20080064736A1, “Substituted 2-Pyrrolidone Derivatives as Fungicides and Insecticides” (Bayer Cropscience AG, priority 2004, published 2008)

Experiments:
sphaerotheca fuliginea = assay: Sphaerotheca-test (cucumber); format: in vivo; conditions: protective, application rate 500 ppm, evaluated 7 days after inoculation
Venturia inaequalis = assay: Venturia test (apples)/protective; format: in vivo; conditions: protective, application rate 100 g/ha, evaluated 10 days after inoculation
Protocol: Venturia Test (Apples)/Protective
(§1) To produce a suitable preparation of active compound, 1 part by weight of active compound is mixed with the stated amounts of solvent and emulsifier, and the concentrate is diluted with water to the desired concentration.
To test for protective activity, young plants are sprayed with the preparation of active compound at the stated rate of application. After the spray coating has dried on, the plants are inoculated with an aqueous conidia suspension of the causal agent of apple scab (Venturia inaequalis) and then remain for 1 day in an incubation cabinet at approximately 20° C. and a relative atmospheric humidity of 100%.
The plants are then placed in a greenhouse at approximately 21° C. and a relative atmospheric humidity of approximately 90%.
The test is evaluated 10 days after the inoculation. 0% means an efficacy which corresponds to that of the control, while an efficacy of 100% means that no disease is observed.

Spodoptera frugiperda = assay: Spodoptera frugiperda-test (sensible strain); format: in vivo; conditions: cabbage leaves dipped, larvae, after six days
Protocol: Spodoptera frugiperda-Test (Sensible Strain)
Pieces of cabbage leaves (Brassica oleracea) are treated by being dipped into the preparation of the active compound of the desired concentration and are infested with larvae of the fall army worm (Spodoptera frugiperda) as long as the leaves are still moist.
After six days the mortality in % is determined. 100% means that all the caterpillars have been killed; 0% means that none of the caterpillars have been killed.

Podosphaera leucotricha = assay: Podosphaera test (apple)/protective; format: in vivo; conditions: protective, application rate 100 g/ha, evaluated 7 days after inoculation
Protocol: Podosphaera Test (Apple)/Protective
as §1
To test for protective activity, young plants are sprayed with the preparation of active compound at the stated rate of application. After the spray coating has dried on, the plants are inoculated with an aqueous spore suspension of the causal agent of apple mildew (Podosphaera leucotricha). The plants are then placed in a greenhouse at approximately 23° C. and a relative atmospheric humidity of approximately 70%.
The test is evaluated 7 days after the inoculation. 0% means an efficacy which corresponds to that of the control, while an efficacy of 100% means that no disease is observed.

Botrytis cinerea = assay: Botrytis test (beans)/protective; format: in vivo; conditions: protective, application rate 500 g/ha, lesion size 2 days after inoculation
Protocol: Botrytis Test (Beans)/Protective
as §1
To test for protective activity, young plants are sprayed with the preparation of active compound. After the spray coating has dried on, 2 small pieces of agar covered with growth of Botrytis cinerea are placed on each leaf. The inoculated plants are placed in a darkened chamber at 20° C. and a relative atmospheric humidity of 100%.
2 days after the inoculation, the size of the lesions on the leaves is evaluated. 0% means an efficacy which corresponds to that of the control, while an efficacy of 100% means that no disease is observed.

Structure (SMILES)	chromatographic logP	efficacy (sphaerotheca fuliginea) [%]	other results
CCCCCC[C@H]1C(=O)N[C@@]2([C@@H](O)C(C)C)C(=O)O[C@@]12C [(1R,4R,5S)-4-hexyl-1-[(1S)-1-hydroxy-2-methylpropyl]-5-methyl-6-oxa-2-azabicyclo[3.2.0]heptane-3,7-dione]	2.87		
CCCCCC[C@H]1C(=O)N[C@@]2([C@@H](O)C(C)C)C(=O)O[C@@]12C [Example 8, (1R,4R,5S)-4-hexyl-1-[(1S)-1-hydroxy-2-methylpropyl]-5-methyl-6-oxa-2-azabicyclo[3.2.0]heptane-3,7-dione]		70	
CCCCCC[C@H]1C(=O)N[C@@]2([C@@H](O)[C@@H]3C=CCCC3)C(=O)O[C@@]12C [Example 1, (1R,4R,5S)-1-[(S)-(1S)-2-cyclohexen-1-yl(hydroxy)methyl]-4-hexyl-5-methyl-6-oxa-2-azabicyclo[3.2.0]heptane-3,7-dione]		70	efficacy (Venturia inaequalis): 100%; efficacy (mortality) (Spodoptera frugiperda): 100%; efficacy (Podosphaera leucotricha): 100%; efficacy (Botrytis cinerea): more than 90%
CCCCCC[C@@H]1C(=O)N[C@@]2([C@@H](O)C(C)C)C(=O)O[C@@]12C [(1R,4S,5S)-4-hexyl-1-[(1S)-1-hydroxy-2-methylpropyl]-5-methyl-6-oxa-2-azabicyclo[3.2.0]heptane-3,7-dione]	2.79		
